Reference: PubChem BioAssay AID248 (DTP/NCI, 2004)
Toxic doses and inconclusive results are not listed. Cut-off read from the data, not from the text of the source: active = T/C of 150% or more; inactive = T/C below 125%.

Test system: L1210 leukemia ip in BDF1 mice, survival T/C
Assay: NCI In Vivo Anticancer Drug Screen. Data for tumor model L1210 Leukemia (intraperitoneal) in B6D2F1 (BDF1) mice
Conditions: endpoint: mean survival time, higher = longer survival
In short: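 Tumor was transplanted into mice, which were then dosed with test compound or vehicle alone. Survival was recorded for each group, and the treated figure was expressed relative to the control figure.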

[1] = dose: 100.0 mg/kg/injection, schedule: Q01DX009 (ip), vehicle: saline with Tween-80
[2] = dose: 200.0 mg/kg/injection, schedule: Q01DX009 (ip), vehicle: saline with Tween-80
[3] = dose: 100.0 mg/kg/injection, schedule: Q04DX003 (ip), vehicle: saline
[4] = dose: 200.0 mg/kg/injection, schedule: Q04DX003 (ip), vehicle: saline
[5] = dose: 400.0 mg/kg/injection, schedule: Q04DX003 (ip), vehicle: saline
[6] = dose: 100.0 mg/kg/injection, schedule: Q01DX001 (ip), vehicle: saline
[7] = dose: 200.0 mg/kg/injection, schedule: Q01DX001 (ip), vehicle: saline
[8] = dose: 400.0 mg/kg/injection, schedule: Q01DX001 (ip), vehicle: saline
[9] = dose: 100.0 mg/kg/injection, schedule: Q01DX009 (ip), vehicle: Klucel (hydroxypropylcellulose) (HPC)
[10] = dose: 100.0 mg/kg/injection, schedule: Q04DX003 (ip), vehicle: Klucel (hydroxypropylcellulose) (HPC)
[11] = dose: 200.0 mg/kg/injection, schedule: Q01DX009 (ip), vehicle: Klucel (hydroxypropylcellulose) (HPC)
[12] = dose: 200.0 mg/kg/injection, schedule: Q04DX003 (ip), vehicle: Klucel (hydroxypropylcellulose) (HPC)
[13] = dose: 400.0 mg/kg/injection, schedule: Q01DX009 (ip), vehicle: Klucel (hydroxypropylcellulose) (HPC)
[14] = dose: 400.0 mg/kg/injection, schedule: Q04DX003 (ip), vehicle: Klucel (hydroxypropylcellulose) (HPC)
[15] = dose: 100.0 mg/kg/injection, schedule: Q04DX003 (ip), vehicle: saline with Tween-80
[16] = dose: 200.0 mg/kg/injection, schedule: Q04DX003 (ip), vehicle: saline with Tween-80
[17] = dose: 400.0 mg/kg/injection, schedule: Q04DX003 (ip), vehicle: saline with Tween-80

Measured: T/C

CCCCCCCCC(C(O)c1ccccc1)C(O)(C(F)(F)F)C(F)(F)F (stereo not given)
inactive: [1] 95 % of control | [2] 105 % of control | dose: 400.0 mg/kg/injection, schedule: Q01DX009 (ip), vehicle: saline with Tween-80 97 % of control

Cc1ccc(C)c(S(=O)(=O)OCC#CCOS(=O)(=O)c2cc(C)ccc2C)c1
inactive: dose: 50.0 mg/kg/injection, schedule: Q01DX009 (ip), vehicle: saline with Tween-80 92 % of control | [1] 92 % of control | [3] 97 % of control | [2] 87 % of control | [4] 97 % of control | [5] 91 % of control

CC(C)C(O)CC(=O)NN (stereo not given)
inactive: [6] 98 % of control | [7] 110 % of control | [8] 102 % of control

O=C(NCCCl)Nc1cccc2cccnc12
inactive: [9] 100 % of control | [10] 100 % of control | [11] 98 % of control | [12] 102 % of control | [13] 98 % of control | [14] 94 % of control

CC(=O)OC1CC(n2cc(C)c(=O)[nH]c2=O)OC1COC(c1ccccc1)(c1ccccc1)c1ccccc1 (stereo not given)
inactive: dose: 100.0 mg/kg/injection, schedule: Q01DX005 (ip), vehicle: saline 109 % of control | dose: 200.0 mg/kg/injection, schedule: Q01DX005 (ip), vehicle: saline 98 % of control

CCOC(=O)NC1CCC2c3ccccc3C([N+](=O)[O-])(C1)c1ccccc12 (stereo not given)
inactive: [15] 106 % of control | [16] 95 % of control | [17] 90 % of control

NC1CCC(O)CC1 (stereo not given)
inactive: [6] 110 % of control | [7] 97 % of control | [8] 97 % of control

COc1ccc2c3c1OC1C(O)C=CC4C(C2)N(C)CCC341 (stereo not given)
inactive: [6] 98 % of control

CC(=O)OCc1ccc[n+](CCc2c[nH]c3ccccc23)c1
inactive: [15] 95 % of control | [16] 90 % of control

O=C1NN=C(c2ccccc2)C1Cc1ccccc1 (stereo not given)
inactive: [6] 94 % of control | [7] 94 % of control | [8] 105 % of control

CC(=O)OCc1cc(=O)n(C)c2c3c4c(cc12)c(C)cc(=O)n4CO3
inactive: dose: 100.0 mg/kg/injection, schedule: Q01DX001 (ip), vehicle: Klucel (hydroxypropylcellulose) (HPC) 109 % of control | [10] 104 % of control | dose: 200.0 mg/kg/injection, schedule: Q01DX001 (ip), vehicle: Klucel (hydroxypropylcellulose) (HPC) 114 % of control | [12] 117 % of control | dose: 400.0 mg/kg/injection, schedule: Q01DX001 (ip), vehicle: Klucel (hydroxypropylcellulose) (HPC) 118 % of control | [14] 123 % of control

CCOC(=O)C1SCSCC1=O (stereo not given)
inactive: [15] 102 % of control | [16] 98 % of control | [17] 98 % of control

CCC(SC(CC)C(=O)O)C(=O)O (stereo not given)
inactive: [6] 98 % of control | [7] 94 % of control

CCn1c(O)c(C=N)c(=O)[nH]c1=O
inactive: dose: 100.0 mg/kg/injection, schedule: Q01DX009 (ip), vehicle: saline 96 % of control | [3] 88 % of control | dose: 200.0 mg/kg/injection, schedule: Q01DX009 (ip), vehicle: saline 93 % of control | [4] 95 % of control | [5] 90 % of control

O=C(O)c1nccc2ccccc12
inactive: [3] 96 % of control | [4] 112 % of control | [5] 90 % of control

CSC(Cl)=C(Cl)Cl
inactive: dose: 25.0 mg/kg/injection, schedule: Q04DX003 (ip), vehicle: saline with Tween-80 101 % of control | dose: 50.0 mg/kg/injection, schedule: Q04DX003 (ip), vehicle: saline with Tween-80 101 % of control | [6] 90 % of control | [15] 97 % of control

O=CO
inactive: [6] 100 % of control | [7] 98 % of control | [8] 93 % of control

CCOC(=O)COCc1ccccc1
inactive: dose: 25.0 mg/kg/injection, schedule: Q01DX009 (ip), vehicle: saline sonified 98 % of control | dose: 50.0 mg/kg/injection, schedule: Q01DX009 (ip), vehicle: saline sonified 93 % of control | dose: 100.0 mg/kg/injection, schedule: Q01DX009 (ip), vehicle: saline sonified 98 % of control | dose: 100.0 mg/kg/injection, schedule: Q04DX003 (ip), vehicle: saline sonified 97 % of control | dose: 176.0 mg/kg/injection, schedule: Q04DX003 (ip), vehicle: saline sonified 98 % of control | dose: 200.0 mg/kg/injection, schedule: Q04DX003 (ip), vehicle: saline sonified 90 % of control | dose: 264.0 mg/kg/injection, schedule: Q04DX003 (ip), vehicle: saline sonified 91 % of control | dose: 400.0 mg/kg/injection, schedule: Q04DX003 (ip), vehicle: saline sonified 104 % of control

O=C1CC(C(F)(F)F)(C(F)(F)F)O1
inactive: dose: 100.0 mg/kg/injection, schedule: Q04DX002 (ip), vehicle: other 120 % of control | dose: 200.0 mg/kg/injection, schedule: Q04DX002 (ip), vehicle: other 102 % of control | dose: 400.0 mg/kg/injection, schedule: Q04DX002 (ip), vehicle: other 102 % of control

Cc1ccc(S(=O)(=O)OC(C(F)(F)F)C(F)(F)F)cc1
inactive: dose: 100.0 mg/kg/injection, schedule: Q04DX002 (ip), vehicle: Klucel (hydroxypropylcellulose) (HPC) 97 % of control | dose: 200.0 mg/kg/injection, schedule: Q04DX002 (ip), vehicle: Klucel (hydroxypropylcellulose) (HPC) 90 % of control | dose: 400.0 mg/kg/injection, schedule: Q04DX002 (ip), vehicle: Klucel (hydroxypropylcellulose) (HPC) 101 % of control

Cc1ccc(SP(=S)(Sc2ccc(C)cc2)Sc2ccc(C)cc2)cc1
inactive: [9] 97 % of control | [11] 97 % of control | [13] 94 % of control

CC1(C)[C@H](C(=O)O)CC[C@]1(C)C(=O)O
inactive: dose: 100.0 mg/kg/injection, schedule: Q01DX001 (ip), vehicle: other 103 % of control | dose: 200.0 mg/kg/injection, schedule: Q01DX001 (ip), vehicle: other 103 % of control | dose: 400.0 mg/kg/injection, schedule: Q01DX001 (ip), vehicle: other 105 % of control

O=[N+]([O-])c1ccc2nc(-c3ccccc3)nn2c1
inactive: dose: 100.0 mg/kg/injection, schedule: Q01DX001 (ip), vehicle: acetone 92 % of control | dose: 200.0 mg/kg/injection, schedule: Q01DX001 (ip), vehicle: acetone 87 % of control | dose: 400.0 mg/kg/injection, schedule: Q01DX001 (ip), vehicle: acetone 93 % of control

Nc1nc(-c2ccccc2)c(CCCOc2ccc(NC(=O)CBr)cc2)c(=O)[nH]1
inactive: dose: 50.0 mg/kg/injection, schedule: Q01DX001 (ip), vehicle: carboxymethylcellulose (CMC) 91 % of control | dose: 100.0 mg/kg/injection, schedule: Q01DX001 (ip), vehicle: carboxymethylcellulose (CMC) 96 % of control | dose: 200.0 mg/kg/injection, schedule: Q01DX001 (ip), vehicle: carboxymethylcellulose (CMC) 86 % of control | dose: 400.0 mg/kg/injection, schedule: Q01DX001 (ip), vehicle: carboxymethylcellulose (CMC) 86 % of control

O=C(Nc1ccc([N+](=O)[O-])cc1Cl)SCCSC(=O)Nc1ccc([N+](=O)[O-])cc1Cl
inactive: [9] 114 % of control | [11] 94 % of control | [13] 105 % of control

O=C(N/N=C\c1ccc(Cl)cc1)c1ccccc1
inactive: [15] 99 % of control | [16] 100 % of control
